Consider two compounds from patent EP0584223B1, “NOVEL IMMUNOSUPPRESSIVE COMPOUNDS” (VERTEX PHARMACEUTICALS INCORPORATED, priority 1991, dated 1992).

Data set [1] can be described thus: Bioavailability in rats, blood levels by HPLC. The class given is in vivo. To be noted: rat, oral gavage, 50 mg/kg single dose, .05h, whole blood.
The subject of data set [2] is PBLs stimulated with JVM human viral-transformed B lymphoblastoid cell line. Briefly: MLR bioassay, PBLs stimulated with JVM cells. The class given is cell-based. Particulars: mixed lymphocyte reaction, JVM stimulator cells, inhibition of proliferation, read-out: JVM. The text has this: (§1) Fresh peripheral blood lymphocytes (PBLs) from LeukoPak cells or whole blood from random normal blood donors (tested HIV-negative and hepatitis negative) are isolated and separated by density centrifugation over Histopaque 1077 (Sigma Chemical Co., St. Louis, MO). The murine CTLL cytotoxic T cell line and the human Jurkat T cell line are from ATCC (CTLL-2 ATCC TIB214, JURKAT CLONE E6-1 ATCC TIBl52). The human allogeneic B cell lines used for activation of the fresh PBLs are EBV-transformed lymphocytes from normal healthy adult donors with two completely different HLA haplotypes. All cell lines were routinely tested for the presence of Mycoplasma contamination using the Gibco Mycotect test kit and are Mycoplasma-free. Culture medium consists of RPMI 1640 (Gibco, Grand Island, NY) containing penicillin (50 U/ml) and streptomycin (50 µg/ml), L-glutamine 2 mM, 2 mercaptoethanol (5 x 10^-5), 10% heat-inactivated FCS and 10 mM HEPES.
(§2) All chemical stocks were dissolved in DMSO.
(§3) Antigen activated proliferation of PBLs in a primary mixed lymphocyte reaction was assessed in the presence or absence of different concentrations of tested compounds and control drugs. 5 x 10^4 fresh PBLs were stimulated with 5 x 10^3 of Mitomycin C treated-allogeneic EBV-transformed […] cells, LB and JVM, in a final volume of 200 µl per well in 96-well round-bottomed plates (Mishell, B.B. and S.M. Shiigi, Selected Methods in Cellular Immunology W.H. Freeman and Co., San Francisco, CA (1980); Nelson, P.A. et al., Transplantation 50:286 (1990)). Cultures were pulsed on day 6, harvested 24 h later and counted as in previous section.

In data set [3] the test system is human peripheral blood lymphocytes (PBC). Briefly: Mitogenesis assay, PMA plus ionomycin stimulated proliferation. The format is cell-based. Particulars: Lymphocyte, 3 h, read-out: PMA.
Text: (§4) Fresh peripheral blood lymphocytes (PBLs) from LeukoPak cells or whole blood from random normal blood donors (tested HIV-negative and hepatitis negative) are isolated and separated by density centrifugation over Histopaque 1077 (Sigma Chemical Co., St. Louis, MO). […] The human allogeneic B cell lines used for activation of the fresh PBLs are EBV-transformed lymphocytes from normal healthy adult donors with two completely different HLA haplotypes. All cell lines were routinely tested for the presence of Mycoplasma contamination using the Gibco Mycotect test kit and are Mycoplasma-free. Culture medium consists of RPMI 1640 (Gibco, Grand Island, NY) containing penicillin (50 U/ml) and streptomycin (50 µg/ml), L-glutamine 2 mM, 2 mercaptoethanol (5 x 10^-5), 10% heat-inactivated FCS and 10 mM HEPES.
For data set [4], the system named is CTLL-20 murine T cell line. Briefly: IL-2 microassay, IL-2 dependent CTLL proliferation. The format is cell-based. To be noted: Mus musculus; inhibition of proliferation of cytotoxic T cells stimulated by IL-2; read-out: CTLL.
Text: as §4
Data set [5] has as its system PBLs stimulated with LB human viral-transformed B lymphoblastoid cell line. Briefly: MLR bioassay, PBLs stimulated with LB cells. The format is cell-based. Particulars: mixed lymphocyte reaction, LB stimulator cells, inhibition of proliferation, read-out: LB.
Text: as §1, §2, §3

The next data set concerns the target FKBP (Homo sapiens, UniProt P62942). Briefly: Inhibition of FKBP PPIase (rotamase) activity, chymotrypsin-coupled assay. The format is biochemical. To be noted: apparent Ki. The text has this:
The inhibition of the PPIase (rotamase) enzyme activity of the FKBP (apparent "Ki" values) can also be measured according to the methods described by either Harding, M.W. et al., Nature 341:758-760 (1989) or Siekierka, J.J. et al., Nature 341:755-757 (1989). The cis-trans isomerization of the […] peptide bond in a model substrate, N-succinyl-Ala-Ala-Pro-Phe-p-nitroanilide, is monitored spectrophotometrically in a coupled assay with chymotrypsin, which releases 4-nitroanilide from the trans form of the substrate. Fischer, G. et al., Nature 337:476-478 (1989). The inhibitory effect of the addition of different concentrations of inhibitor on the extent of the reaction is determined, and analysis of the change in first order rate constant as a function of inhibitor concentration yields an estimate of the apparent Ki value.

Data set [6] in a line: Bioavailability in rats, blood levels by HPLC. The class given is in vivo. To be noted: rat, 50 mg/kg single dose, whole blood. The procedure:
Bioavailability of compound (20) was determined in rats. A single dose of 50 mg/kg was administered by oral gavage or intraperitoneal (IP) injection in a vehicle consisting of olive oil-10% ethanol. Thereafter, animals were sacrificed at 0.5, 1, 2, 4, 8 and 12 hr, blood was collected into sodium heparin and immediately frozen. Whole blood was extracted with acetonitrile-methanol (90/10 vol:vol) and the concentration of compound per ml of blood was determined by HPLC. […] After oral administration, blood levels of 0.5µM, 1µM, 2µM, 12µM, and 3µM were measured at .05h, 1h, 2h, 4h, and 8h, respectively.

Data set [7] deals with human peripheral blood lymphocytes (PBC). Briefly: Mitogenesis assay, OKT3 stimulated proliferation. Particulars: Lymphocyte, OKT3 (10^-4 dilution final), inhibition of proliferation, 3H-thymidine, read-out: OKT3. The class given is cell-based.
Text: as §4
A further data set deals with FK-506 binding protein (Homo sapiens, UniProt P62942). Briefly: Competitive binding assay with [3H]dihydro-FK-506. Particulars: binding to FKBP; apparent Kd, competition with [3H]dihydro-FK-506.
The next data set deals with CTLL cells. Briefly: Table 3 assay 4: CTLL proliferation + IL-2. The format is cell-based. Particulars: Mus musculus, exogenous IL-2, (3H)TdR incorporation.
Data set [8] relates to T-cell clone stimulated with antibody to the T-cell receptor (TCR) and antibody to CD2. Briefly: Table 3 assay 2: T-cell hybridoma + TCR/CD2 proliferation. The format is cell-based. Particulars: (3H)TdR incorporation, estimated.
Another data set relates to T-cell hybridoma. Briefly: Table 3 assay 3: apoptosis, activation-induced (anti-CD3) cell death. The format is cell-based. Particulars: at 1µg/ml; inhibition of activation-induced cell death, viable cell count.
In data set [9] the test system is fresh human peripheral blood lymphocytes. Briefly: Table 3 assay 1: human PBL + OKT3 proliferation. The format is cell-based. To be noted: Lymphocyte, OKT3 antibody (anti-CD3) stimulation, (3H)TdR incorporation, estimated.

pIC50, pKd, pKi: −log10 of the molar value.

Chain of FKBP (P62942 whole entry): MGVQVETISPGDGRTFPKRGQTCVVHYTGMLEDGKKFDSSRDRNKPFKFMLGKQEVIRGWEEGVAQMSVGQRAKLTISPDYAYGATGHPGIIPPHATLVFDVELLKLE
Chain of FK-506 binding protein (P62942 whole entry): as above

For orientation: pKi means −log10 of the Ki, conventionally taken in molar units. Broadly, the pKd is −log10 of the Kd, conventionally taken in molar units. For the compound `COc1cc(C(=O)C(=O)N2CCCC[C@H]2C(=O)OC(CCCc2ccccc2)CCCc2ccccn2)cc(OC)c1OC` (stereo partly drawn) [Compound 20], the concentration at 0.05 h in data set [1] amounted to 500 nM. In addition, the pIC50 is 5.60 in [2]; 5.77 in [3]; 5.70 in [4]; 5.70 in data set [5]; 5.70 in data set [7]. For the same compound, on FKBP, the pKi is 9.00. This compound gave a concentration at 0.5 h in data set [6] (IP, 0.5h) of 700 nM. In addition, the concentration at 1 h in data set [6] (IP) came to 22000 nM; in data set [6] (oral gavage) it was 1000 nM. Besides, the concentration at 2 h in data set [6] (IP) is 225000 nM; in data set [6] (oral gavage), 2000 nM. The results for the concentration at 4 h in [6] (IP) and in data set [6] (oral gavage) were 45000 nM and 12000 nM, respectively. Moreover, the concentration at 8 h in data set [6] (IP) was 1000 nM; in data set [6] (oral gavage), 3000 nM. Besides, on FK-506 binding protein, the pKd was 8.40.
What is called IC50 is the concentration that inhibits the measured activity by half. Consider `CO[C@H]1C[C@@H]2CC[C@@H](C)[C@@](O)(O2)C(=O)C(=O)N2CCCC[C@H]2C(=O)O[C@H]([C@H](C)C[C@@H]2CC[C@@H](O)[C@H](OC)C2)CC(=O)[C@H](C)/C=C(\C)[C@@H](O)[C@@H](OC)C(=O)[C@H](C)C[C@H](C)/C=C/C=C/C=C/1C` [Rapamycin], for which the IC50 in the data set with CTLL cells was about 0.01 µg/mL; in [8], under 1 µg/mL; in [9], under 1 µg/mL. Further, the Apoptosis result with T-cell hybridoma was “Inactive at 1µg/ml”.
